Test results as given in patent publication US20080096872A1, “Composition for Treatment of Pain Specification” (priority 2004, published 2008).
Entries after “also recorded” stand apart in the source; their conditions may differ.

Key:
Format in all cases: in vivo, human
[1] = tested on: patients on chronic methadone therapy for pain; test: Piper survey for fatigue in chronic pain patients on methadone, with and without NAC
Experimental: (§1) 6 patients who have been on chronic methadone therapy for pain treatment and who are also taking NAC (600 mg/day) were studied. Patients were taking a range of methadone doses (30-160 mg/day).
(§2) This is a descriptive case study of 6 patients. A blood sample was obtained and used to measure serum methadone levels was obtained on methadone/NAC therapy. NAC was supplied by the investigator from assayed commercially available supply and pill counts were done to assure patient compliance. The patients were on the same methadone dose for over seven days; this ensures steady state levels of methadone had been achieved. The patients were then be asked to stop taking NAC for 7 days and were asked to return to the clinic for a second blood draw that measured serum methadone levels. Blood was collected in the offices of BAA. Three additional patients were studied, after the results from sera of the initial patients were assayed; these patients had baseline pain and fatigue assessments with the Piper Survey and were subsequently treated with NAC, serum determinations were sent, but have not as yet been completed. Thus patients on methadone were studied with NAC withdrawal (First Group) and NAC added to treatment (second group). The medical chart was reviewed for current medications, including over the counter medications, supplements, and herbal preparations; health conditions and available laboratory evaluations of electrolytes. The patient's age and gender was recorded.
(§3) BAA offices: A 5 ml blood sample will be obtained on methadone/NAC. Blood was drawn prior to a normally timed dose of methadone. The patient was instructed to discontinue taking NAC and returned in 7 days, at the same time, for a blood draw. This was also drawn prior to a normally timed dose of methadone. Patients completed a Piper survey for fatigue and distress on each occasion prior to the blood draw. The Piper score reflects a valid measure of fatigue. Higher numbers for the score are indicative of greater fatigue. Within the Piper survey a pain measure is also recorded. Both pain and fatigue scores were measured at each of the clinical visits one week apart. Trained study personnel completed chart review. Analysis of serum concentrations of methadone was completed at the Bioanalytical Core Lab at the Arizona Health Science Center (Sarver Heart Center, University of Arizona, Tucson).

[2] = tested on: patients on chronic methadone therapy for pain; test: VAS pain and clinical comments in pain patients in clinical trial, with and without NAC
Experimental: as §1, §2, §3

[3] = tested on: Restless Legs Syndrome (RLS) subjects; test: Clinical use: relief of Restless Legs Syndrome symptoms; conditions: clinical observation
Experimental: The blood levels of these patients measured below detection thresholds (20 ng/ml) and well below the blood levels recorded for pain relief (300 ng/ml). The NAC dose used in the present invention was far less than the 500 mg TID dose used as a supplement in treatment of diseases of inflammation.

[4] = tested on: patients with pain / restless legs syndrome; test: Case histories: NAC added to oral ketamine (pain diary, patient reports); conditions: single patients; Case 1: NAC 25 mg, within 24 hours; Case 2: ketamine 150 mg/day
Experimental: The patient maintained a diary noting their level of pain with 1 being the lowest and 10 the highest. […] The patient was then administered 25 mg of NAC to be taken in combination with oral ketamine.

[5] = on methadone without NAC (M001-M003 NAC stopped 7 days; M004-M006 baseline before NAC)
[6] = cases summarized and a few additional cases

SMILES: CCC(=O)C(CC(C)N(C)C)(c1ccccc1)c1ccccc1 (stereo not shown) [Mtd, methadone]
- Fatigue (yes/no) [1, 5]: Yes

SMILES: CC(=O)N[C@@H](CS)C(=O)O [NAC, N-acetyl-cysteine]
- fatigue when NAC is added to methadone [1, 6]: Improvement in fatigue
- Fatigue (yes/no) ([1]; on methadone with NAC, patients M001-M006): No
- Fatigue (yes/no) [1, 5]: Yes and No
- medication for pain when NAC is added to methadone [2, 6]: reduction in medication for pain
- opioid reduction ([2]; patient M004, after NAC added to methadone): subsequently; 30% opiod
- Comments: change on stopping NAC ([2]; patients M001-M003 on methadone, NAC stopped 7 days): Inc. irritabil; also recorded: Inc.pain/w
- Comments: patient report / clinical course after NAC added ([2]; patients M004-M006 on methadone, NAC added): Stopped all oxycondone; also recorded: “much less fatigue since starting; also recorded: “I do feel better taking NAC”

SMILES: COc1ccc2c(c1)[C@]13CCCC[C@@H]1[C@H](C2)N(C)CC3 [dextromethorphan]
- symptoms of Restless Legs Syndrome (RLS) [3]: treats restless legs syndrome

SMILES: CNC1(c2ccccc2Cl)CCCCC1=O (stereo not shown) [ketamine]
- pain relief (patient report) [4]: noted pain relief
